For four molecules, EC50 results are on record in ChEMBL document CHEMBL1130980, “Novel antiproliferative falcarindiol furanocoumarin ethers from the root of Angelica japonica” (1998).

In brackets after ≈: the same amount, converted by molar mass.

This experiment is described as follows: Inhibitory activity in MTT assay against MK-I cell. It counts as functional. The conditions noted are these: Homo sapiens, read-out: ED50 (the source's name).
As to `C=CC(O)C#CC#C[C@@H](O)/C=C\CCCCCCC` (single isomer, unassigned) [FALCARINDIOL], the EC50 amounted to 3.2 µg/mL (≈ 12.3 µM).

For the molecule `C=C[C@H](O)C#CC#CC(/C=C\CCCCCCC)OC(C)=O` (some centres undefined), the EC50 was found to be 3.2 µg/mL (≈ 10.6 µM).

As to `C=C[C@H](O)C#CC#CC/C=C\CCCCCCC` [FALCARINOL], the EC50 amounted to 0.3 µg/mL (≈ 1.23 µM).

Take `C=CC(O)C#CC#CC(O)/C=C\C(O)CCCCCC` (centres undefined): the EC50 amounted to 2.2 µg/mL (≈ 7.96 µM).
